Test results from PMC7068222, “Inhibition of Tyrosinase by Mercury Chloride: Spectroscopic and Docking Studies” (Frontiers in Pharmacology, 2020).
pIC50, pKi: −log10 of the molar value. Where two headings read alike, the source gives them in different places.

Columns and labels:
[1] = tested on: tyrosinase (monophenolase and diphenolase activity) in the presence of HgCl2; assay: Effect of premixing amino acids with HgCl2 on tyrosinase inhibition (protection of enzyme activity); assay type: biochemical, mushroom
Method: According to the results of docking study, we furtherly checked the interactions between HgCl2 and amino acid. We assumed that if HgCl2 indeed binds to the amino acid residues of the enzyme, such as His, Val, Glu, and Ala, premixing the amino acid with HgCl2 would affect the inhibitory effects. Thus, the monophenolase and diphenolase activity of tyrosinase both were determined by adding the mixture of HgCl2 and amino acid. The mixture was prepared just before use by adding an aliquot of 200 μL HgCl2 solution to the equal volume of amino acid solution, and which was allowed to react for 10 mins at room temperature. […] In brief, 5 and 10 mmol/L solutions of His, HgCl2 were prepared beforehand, and the mixture was produced by mixing the His and HgCl2 solutions (10 mmol/L) in the volume ratio of 1:1. The spectra of the samples at the wavelengths between 200 and 800 nm were scanned by using UV spectrophotometer (UV 2550, SHIMADZU).The experiment was repeated three times.

immobilized tyrosinase = biological target: T1, immobilized tyrosinase (Agaricus bisporus, UniProt C7FF04); assay type: biochemical, mushroom
T1 construct: purchased Sigma-Aldrich
T1 sequence (C7FF04 1-392 limits assumed): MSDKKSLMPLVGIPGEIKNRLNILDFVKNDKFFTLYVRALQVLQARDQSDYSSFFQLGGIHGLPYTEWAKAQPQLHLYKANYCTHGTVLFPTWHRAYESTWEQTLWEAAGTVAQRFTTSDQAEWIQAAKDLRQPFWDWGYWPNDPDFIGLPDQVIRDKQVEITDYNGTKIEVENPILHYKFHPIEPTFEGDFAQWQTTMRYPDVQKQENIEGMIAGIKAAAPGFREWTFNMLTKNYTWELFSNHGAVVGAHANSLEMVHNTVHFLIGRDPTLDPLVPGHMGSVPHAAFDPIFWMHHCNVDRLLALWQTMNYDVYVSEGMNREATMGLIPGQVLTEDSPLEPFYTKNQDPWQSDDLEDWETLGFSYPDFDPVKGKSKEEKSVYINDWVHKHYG
Method: Experiments were conducted to confirm the inhibitory mechanism of HgCl2 on tyrosinase furtherly by using immobilized tyrosinase. In brief, we added 200 µL of diluted tyrosinase (2500 U/mL) to each well of a 24-well polystyrene plate and then covered the plate and incubated it at 4°C overnight to produce immobilized tyrosinase. The plate was brought to room temperature, and we thoroughly decanted the solution from wells and washed the wells two times with PBS to remove the unfixed enzyme. We added 3 mL of inhibitor solution to each well and incubated them at room temperature for 30 mins to assure the fully reaction between the inhibitor and the enzyme, discarding the liquid following by washing the wells two times with PBS to remove the excess inhibitor. Then, 3 mL of PBS was added to each well, and they stood for 10 mins to make the dissociation of inhibitor-tyrosinase complex. WE thoroughly decanted the solution from wells to remove the dissociated inhibitor (the procedure was repeated three times). Finally, 3 mL of substrate (dopa) was added to each well and react at room temperature for 30 mins to test the residual activity of tyrosinase.

[2] = biological target: T2, mushroom tyrosinase (diphenolase activity) (Agaricus bisporus, UniProt C7FF04); assay: Kinetic analysis of inhibition mechanism and type (enzyme-concentration plots, Lineweaver-Burk plot, secondary plot); assay type: biochemical; design: purchased Sigma-Aldrich
Text: (1) 1/ν=Km/Vmax(1+[I]/Ki)1/[S]+1+[I]/Ki/Vmax and a secondary plot is presented below
(2) In.=[I]/KiVmax+1/Vmax where ν is velocity of the enzyme reaction calculated by a change in absorbance at the wavelength of 475 nm per minute in the absence and presence of HgCl2. K m and K i are the Michaelis–Menten constant and inhibition constant, respectively. The values of K m can be calculated from the equation (1). [I] and [S] are the concentrations of inhibitor and substrate, respectively. In. is the intercept value of the Lineweaver–Burk curve. K i should be calculated by the secondary plot of In. vs. [I].
The relationship between enzyme activity (expressed as the rate of the oxidation reaction) and its concentration (6.67, 13.33, 20, 26.67, and 33.33 U/mL) in the presence of different concentrations of HgCl2 (0, 4.17, 16.67, 33.33, and 66.67 μmol/L) was investigated.
Target sequence in this assay (C7FF04 1-392 limits assumed): as above

[3] = biological target: T3, mushroom tyrosinase (monophenolase activity) (Agaricus bisporus, UniProt C7FF04); assay type: biochemical
T3 construct: purchased Sigma-Aldrich
T3 sequence (C7FF04 1-392 limits assumed): as above
Method: The method was modified based on the previous description ([Chen et al., 2016]). […] The appropriate blanks (containing both tyrosine and HgCl2 but without tyrosinase) were tested and subtracted to correct the absorbance.

tyrosinase = biological target: T4, tyrosinase (Agaricus bisporus, UniProt C7FF04); assay: Intrinsic fluorescence quenching of tyrosinase; assay type: binding, mushroom; settings: for Kq (quenching rate constant): Kq = Ksv/τ0, τ0 = 10^-8 s
T4 construct: purchased Sigma-Aldrich
T4 sequence (C7FF04 1-392): as the sequence (C7FF04 1-392 limits assumed) above
Method: The fluorescence emission spectra were obtained using Spectrofluorometer FS5 (Edinburgh Instruments, England) equipped with a 150 W xenon lamp and a thermostat bath. We added a 2.0 mL aliquot of tyrosinase solution (400 U/mL) to the quartz cuvette (1 cm path length) and gradually added 2 mmol/L solution of HgCl2 to give concentrations ranged from 0 to 400 μmol/L. After five-minute incubation periods, fluorescence in the range of 290–500 nm was measured while the excitation wavelength was fixed at 280 nm. All the fluorescence data collected from these experiments were corrected for absorption of excitation light and re-absorption of emitted light according to the following equation: ([Wang et al., 2015])
where F c and F m represent the corrected and measured fluorescence, respectively. A1 and A2 are the absorbance of HgCl2 at excitation and emission wavelengths, respectively.
To identify the interaction mechanism of HgCl2 on tyrosinase, the data of fluorescence quenching were presented in the form of a Stern-Volmer plot, using the following equation:
(4) F0/F=1+Kqτ0[Q]=1+Ksv[Q]
where, F 0 and F represent the steady-state fluorescence intensities in the absence and presence of HgCl2 (quencher), respectively, [Q] denotes the concentration of HgCl2, K q is the quenching rate constant of the biomolecule (K q = K sv/τ0), K sv is the Stern–Volmer dynamic quenching constant, and τ0 is the average lifetime of the fluorophore in the absence of quencher (τ0 = 10^-8 s). The value of K sv determined by the linear regression plot of F0/F vs. [Q] at 298 and 304 K were (2.14 ± 0.05) × 10^4 and 1.83 ± 0.03 × 10^4 L/mol, respectively. […] K sv values decreased gradually with the increase of the temperatures, which manifested that the fluorescence quenching of tyrosinase by HgCl2 was a static quenching process ([Lin et al., 2018]).
For static quenching interactions, if there are similar and independent sites in biological molecules, the apparent binding constants (K a) and the number of binding sites (n) can be obtained from the following equation:
(5) logF0−F/F=logKa+nlog[Q]

[4] = biological target: T2, mushroom tyrosinase (diphenolase activity); assay type: biochemical; settings: substrate dopa 0.5 mmol/L, tyrosinase 13.33 U/mL, pH 6.8, 305 K
Target sequence in this assay (C7FF04 1-392): as the sequence (C7FF04 1-392 limits assumed) above
Method: The assays were carried out by using 3 mL of reaction system containing 0.5 mmol/L substrate (dopa) in 50 mmol/L PBS (pH = 6.8) at 305 K. The final concentration of tyrosinase was 13.33 U/mL. […] Relative enzymatic activity (%) = (A1-A3)/A2×100%. The experiment was repeated three times. The IC50 value was calculated as the concentration (leading to achieve 50% inhibition) according to the equation, which is obtained by curve fitting of the enzyme activity versus the concentrations of inhibitor.

[5] = from plot of log[(F0-F)/F] vs log[Q]

With `CC(C)[C@H](N)C(=O)O` [Val, valine] the “effect on protecting the monophenolase activity in the presence of HgCl2” value ([1]; amino acid premixed with HgCl2) was “no effects”.

In the case of `N[C@@H](Cc1c[nH]cn1)C(=O)O` [His, Histidine], the “protecting capability on diphenolase activity in the presence of HgCl2” value ([1]; His 10.42 μmol/L) was 48.83 ± 1.89%, the “protecting capability on diphenolase activity in the presence of HgCl2” value ([1]; His 666.67 μmol/L) was 83.43 ± 2.56% and the “effect on protecting the diphenolase activity in the presence of HgCl2” value ([1]; amino acid premixed with HgCl2) was “significant effect”. For the same molecule, the “effect on protecting the monophenolase activity in the presence of HgCl2” value ([1]; amino acid premixed with HgCl2) was “protect the monophenolase activity”.

In the case of `C[C@H](N)C(=O)O` [Ala, alanine], the “effect on protecting the monophenolase activity in the presence of HgCl2” value ([1]; amino acid premixed with HgCl2) was “no effects”.

In the case of `N[C@@H](CCC(=O)O)C(=O)O` [Glu, glutamate], the “effect on protecting the monophenolase activity in the presence of HgCl2” value ([1]; amino acid premixed with HgCl2) was “no effects”.

With `CCO` [95% ethanol, ethanol, reference compound] the “Relative activity (%) of immobilized tyrosinase after inhibitor treatment and washing” value (immobilized tyrosinase) was 3.34%.

With `[Cl][Hg][Cl]` [HgCl2, Mercuric chloride] the “inhibition type (Lineweaver-Burk)” value ([2]; diphenolase activity, tyrosinase 13.33 U/mL) was “non-competitive inhibition”, the pKi ([2]; diphenolase, secondary plot of intercept vs inhibitor concentration, read-out: Ki (inhibition constant)) was 4.53 and the “inhibition mechanism (reversibility)” value ([2]; plots of activity vs enzyme concentration, HgCl2 0-66.67 μmol/L) was “irreversible”. The “lag time of monophenolase reaction at highest inhibitor concentration” value ([3]; prolonged with increasing inhibitor concentration, without inhibitor 1.44 min (kojic acid series), 2.00 min (HgCl2 series)) was 13.4 min, the pIC50 ([3]; substrate tyrosine 0.5 mmol/L, tyrosinase 33.33 U/mL, pH 6.8, 305 K) was 4.52 and the “Ksv (Stern-Volmer quenching constant)” value (tyrosinase; 298 K) was “(2.14 ± 0.05) × 10^4 L/mol”. For the same molecule, the “Kq (quenching rate constant)” value (tyrosinase; 298 K) was “(2.14 ± 0.05) × 10^12 L/mol/s”, the “Ksv (Stern-Volmer quenching constant)” value (tyrosinase; 304 K) was 1.83 ± 0.03 × 10^4 L/mol and the “Kq (quenching rate constant)” value (tyrosinase; 304 K) was “(1.83 ± 0.03) × 10^12 L/mol/s”. The “Ka (apparent binding constant)” value (tyrosinase; [5]) was “(2.87 ± 0.02) × 10^4 L/mol”, the “n (number of binding sites)” value (tyrosinase; [5]) was 0.96 ± 0.01 and the “Relative activity (%) of immobilized tyrosinase after inhibitor treatment and washing” value (immobilized tyrosinase; kojic acid and HgCl2 666.67 μmol/L, 30 min incubation, PBS treatment = 100%, substrate dopa) was 28.32%. It also gave a pIC50 [4] of 4.11.
